Reference: ChEMBL document CHEMBL5042473 (J Med Chem, 2022)

Assays:
[1] = molecular target: Mitogen-activated protein kinase 14 (Homo sapiens, UniProt Q16539); test: Inhibition of human p38 MAPK alpha incubated for 1 hr by photometric method
[2] = Drug concentration in mouse C57BL/6 heart at 0.4 mg/kg,po measured at 4 hrs by LC-MS/MS analysis; type: ADME, organism-based; settings: C57BL/6, mouse, read-out: Drug uptake
[3] = Drug concentration in mouse C57BL/6 brain at 0.4 mg/kg,po measured at 4 hrs by LC-MS/MS analysis; type: ADME, organism-based; settings: C57BL/6, mouse, read-out: Drug uptake
[4] = tested on: Splenocyte; test: Antiinflammatory activity against LPS-stimulated Balb/c mouse splenocytes assessed as reduction in IL-6 at 1 nM incubated for 24 hrs by ELISA based method; type: functional; set-up: scale not given: the % may be the effect or the level left
[5] = tested on: Splenocyte; test: Antiinflammatory activity against LPS-stimulated Balb/c mouse splenocytes assessed as reduction in IL-6 at 10 nM incubated for 24 hrs by ELISA based method; type: functional; set-up: scale not given: the % may be the effect or the level left
[6] = molecular target: CYP2C9 (Homo sapiens, UniProt P11712); test: Inhibition of human recombinant CYP2C9 at 10 uM relative to control; type: ADME
CYP2C9, sequence (P11712 whole entry): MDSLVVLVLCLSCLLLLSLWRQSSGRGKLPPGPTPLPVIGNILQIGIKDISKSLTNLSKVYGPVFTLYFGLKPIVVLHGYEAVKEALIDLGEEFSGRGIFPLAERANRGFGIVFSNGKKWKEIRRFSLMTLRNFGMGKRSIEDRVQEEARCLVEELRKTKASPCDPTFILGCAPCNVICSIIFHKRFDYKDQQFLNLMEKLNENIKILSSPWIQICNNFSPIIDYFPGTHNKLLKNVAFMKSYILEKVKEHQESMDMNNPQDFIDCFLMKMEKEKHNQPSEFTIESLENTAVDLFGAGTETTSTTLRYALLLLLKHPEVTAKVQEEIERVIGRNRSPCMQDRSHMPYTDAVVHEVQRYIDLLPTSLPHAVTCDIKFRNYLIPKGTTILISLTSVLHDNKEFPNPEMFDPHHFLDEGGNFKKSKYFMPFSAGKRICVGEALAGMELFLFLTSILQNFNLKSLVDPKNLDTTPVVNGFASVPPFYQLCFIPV

[7] = Drug concentration in mouse C57BL/6 brain at 0.4 mg/kg,po measured at 2 hrs by LC-MS/MS analysis; type: ADME, organism-based; settings: C57BL/6, mouse, read-out: Drug uptake
[8] = Ratio of drug concentration in mouse C57BL/6 brain to plasma at 0.4 mg/kg, po measured at 2 hrs by LC-MS/MS analysis; type: ADME, organism-based; settings: C57BL/6, mouse, brain and plasma
[9] = tested on: Blood; test: Antiinflammatory activity against LPS-stimulated C57BL/6 mouse whole blood assessed as reduction in TNF-alpha at 1 nM incubated for 24 hrs by ELISA based method; type: functional; set-up: scale not given: the % may be the effect or the level left
[10] = tested on: Splenocyte; test: Antiinflammatory activity against LPS-stimulated Balb/c mouse splenocytes assessed as reduction in IL-6 at 100 nM incubated for 24 hrs by ELISA based method; type: functional; set-up: scale not given: the % may be the effect or the level left
[11] = molecular target: CYP3A4 (Homo sapiens, UniProt P08684); test: Inhibition of human recombinant CYP3A4 at 10 uM relative to control; type: ADME
CYP3A4, sequence (P08684 whole entry): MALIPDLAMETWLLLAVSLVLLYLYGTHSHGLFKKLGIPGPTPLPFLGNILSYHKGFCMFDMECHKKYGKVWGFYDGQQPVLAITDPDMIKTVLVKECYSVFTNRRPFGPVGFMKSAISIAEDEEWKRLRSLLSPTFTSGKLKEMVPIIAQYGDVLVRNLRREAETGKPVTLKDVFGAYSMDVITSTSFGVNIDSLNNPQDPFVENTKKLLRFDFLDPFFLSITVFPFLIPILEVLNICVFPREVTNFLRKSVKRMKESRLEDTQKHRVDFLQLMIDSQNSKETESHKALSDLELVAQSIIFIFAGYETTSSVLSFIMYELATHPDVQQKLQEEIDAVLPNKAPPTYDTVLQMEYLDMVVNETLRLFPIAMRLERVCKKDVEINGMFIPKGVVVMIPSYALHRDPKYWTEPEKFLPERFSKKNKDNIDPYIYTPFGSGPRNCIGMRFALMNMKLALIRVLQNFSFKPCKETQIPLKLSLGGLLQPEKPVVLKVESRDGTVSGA

[12] = molecular target: hERG (Homo sapiens, UniProt Q12809); test: Inhibition of hERG at 10 uM by fluorimetric analysis relative to control; type: toxicity
hERG, sequence (Q12809 whole entry): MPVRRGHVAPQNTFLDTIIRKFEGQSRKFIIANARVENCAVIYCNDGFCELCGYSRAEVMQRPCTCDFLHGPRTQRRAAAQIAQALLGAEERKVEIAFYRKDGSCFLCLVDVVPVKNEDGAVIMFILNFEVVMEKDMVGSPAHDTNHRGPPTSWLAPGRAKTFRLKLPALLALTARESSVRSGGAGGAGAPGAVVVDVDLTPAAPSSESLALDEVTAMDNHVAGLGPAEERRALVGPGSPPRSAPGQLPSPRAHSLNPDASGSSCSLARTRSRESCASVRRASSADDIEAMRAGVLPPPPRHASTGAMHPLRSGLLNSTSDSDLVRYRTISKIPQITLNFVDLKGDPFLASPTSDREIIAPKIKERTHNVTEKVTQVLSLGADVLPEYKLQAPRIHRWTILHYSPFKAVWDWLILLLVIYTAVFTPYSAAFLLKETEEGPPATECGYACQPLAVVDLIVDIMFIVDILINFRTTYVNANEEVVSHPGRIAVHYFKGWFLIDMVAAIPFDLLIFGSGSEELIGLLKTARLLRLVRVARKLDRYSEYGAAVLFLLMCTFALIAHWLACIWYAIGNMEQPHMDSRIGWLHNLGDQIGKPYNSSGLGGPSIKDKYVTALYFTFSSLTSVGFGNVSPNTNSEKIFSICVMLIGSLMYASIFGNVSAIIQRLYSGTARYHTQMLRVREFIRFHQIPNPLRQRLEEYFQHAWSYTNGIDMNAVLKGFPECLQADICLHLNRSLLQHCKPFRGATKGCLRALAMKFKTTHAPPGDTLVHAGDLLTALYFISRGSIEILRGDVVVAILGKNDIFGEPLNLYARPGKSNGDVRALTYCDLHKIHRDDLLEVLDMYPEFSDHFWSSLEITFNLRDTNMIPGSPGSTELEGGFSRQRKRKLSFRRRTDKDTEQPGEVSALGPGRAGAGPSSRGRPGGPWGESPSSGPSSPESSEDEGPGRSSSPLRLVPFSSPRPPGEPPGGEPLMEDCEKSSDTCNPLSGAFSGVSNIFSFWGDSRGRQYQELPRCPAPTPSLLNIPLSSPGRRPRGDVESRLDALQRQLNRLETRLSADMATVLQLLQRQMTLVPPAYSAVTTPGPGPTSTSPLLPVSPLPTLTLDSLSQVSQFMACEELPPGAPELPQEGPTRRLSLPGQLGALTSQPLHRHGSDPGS

[13] = Cytotoxicity against Balb/c mouse splenocytes assessed as metabolic activity at 100 nM incubated for 24 hrs by MTT assay relative to LPS-stimulated splenocytes; type: toxicity, cell-based, Splenocyte; settings: read-out: Activity
[14] = tested on: Splenocyte; test: Cytotoxicity against Balb/c mouse splenocytes assessed as metabolic activity at 1 to 10 nM incubated for 24 hrs by MTT assay; type: toxicity, cell-based; settings: 0.01 µM, dose 1-10 nM
[15] = molecular target: CYP2D6 (Homo sapiens, UniProt P10635); test: Inhibition of human recombinant CYP2D6 at 10 uM relative to control; type: ADME
CYP2D6, sequence (P10635 whole entry): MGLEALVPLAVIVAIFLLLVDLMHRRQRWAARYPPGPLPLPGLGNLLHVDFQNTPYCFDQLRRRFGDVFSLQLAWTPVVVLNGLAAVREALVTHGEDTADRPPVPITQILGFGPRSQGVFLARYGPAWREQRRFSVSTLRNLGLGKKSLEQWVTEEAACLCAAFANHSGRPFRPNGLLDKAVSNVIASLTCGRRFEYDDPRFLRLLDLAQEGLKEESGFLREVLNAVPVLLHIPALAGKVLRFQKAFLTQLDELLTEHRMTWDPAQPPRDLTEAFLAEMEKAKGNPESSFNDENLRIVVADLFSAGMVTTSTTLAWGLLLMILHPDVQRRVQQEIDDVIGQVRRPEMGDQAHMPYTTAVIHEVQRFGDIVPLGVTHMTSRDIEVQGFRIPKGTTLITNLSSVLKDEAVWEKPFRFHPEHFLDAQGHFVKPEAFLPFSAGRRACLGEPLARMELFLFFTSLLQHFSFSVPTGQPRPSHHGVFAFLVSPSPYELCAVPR

[16] = molecular target: T1, CYP1A2 (Homo sapiens, UniProt P05177); test: Inhibition of human recombinant CYP1A2 at 10 uM relative to control; type: ADME
T1 sequence (P05177 whole entry): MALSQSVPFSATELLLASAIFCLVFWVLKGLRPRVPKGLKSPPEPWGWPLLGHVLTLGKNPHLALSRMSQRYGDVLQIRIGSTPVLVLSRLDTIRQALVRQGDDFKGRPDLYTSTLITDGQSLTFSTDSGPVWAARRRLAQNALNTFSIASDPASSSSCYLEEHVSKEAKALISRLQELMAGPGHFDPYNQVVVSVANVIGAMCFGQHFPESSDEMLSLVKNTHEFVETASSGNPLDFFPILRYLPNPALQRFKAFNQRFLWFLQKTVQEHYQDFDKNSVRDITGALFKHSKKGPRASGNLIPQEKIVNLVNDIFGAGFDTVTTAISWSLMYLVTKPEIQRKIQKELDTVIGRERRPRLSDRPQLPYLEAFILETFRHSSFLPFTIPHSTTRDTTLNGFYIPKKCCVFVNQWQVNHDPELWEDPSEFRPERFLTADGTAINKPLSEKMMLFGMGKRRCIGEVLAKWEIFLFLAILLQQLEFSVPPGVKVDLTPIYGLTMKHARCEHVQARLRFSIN

[17] = molecular target: CYP2C19 (Homo sapiens, UniProt P33261); test: Inhibition of human recombinant CYP2C19 at 10 uM relative to control; type: ADME
CYP2C19, sequence (P33261 whole entry): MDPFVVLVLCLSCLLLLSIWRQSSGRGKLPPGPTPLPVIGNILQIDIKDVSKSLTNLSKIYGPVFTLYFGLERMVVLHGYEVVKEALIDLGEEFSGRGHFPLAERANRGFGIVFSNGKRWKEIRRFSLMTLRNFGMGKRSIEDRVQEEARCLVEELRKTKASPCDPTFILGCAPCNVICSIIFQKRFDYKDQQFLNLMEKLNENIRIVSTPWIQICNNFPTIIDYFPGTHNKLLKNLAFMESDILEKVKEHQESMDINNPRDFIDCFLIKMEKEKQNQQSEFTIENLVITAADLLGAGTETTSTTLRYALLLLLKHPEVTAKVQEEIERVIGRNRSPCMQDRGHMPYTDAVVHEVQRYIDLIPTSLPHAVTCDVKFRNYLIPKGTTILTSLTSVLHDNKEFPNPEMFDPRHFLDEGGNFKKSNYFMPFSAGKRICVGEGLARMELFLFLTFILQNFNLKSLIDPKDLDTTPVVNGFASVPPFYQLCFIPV

[18] = Metabolic stability in human liver microsomes assessed as parent compound remaining incubated for 120 mins; type: ADME, Microsome; settings: read-out: Stability
[19] = Drug concentration in mouse C57BL/6 liver at 0.4 mg/kg,po measured at 4 hrs by LC-MS/MS analysis; type: ADME, organism-based; settings: C57BL/6, mouse, read-out: Drug uptake
[20] = Drug concentration in mouse C57BL/6 kidney at 0.4 mg/kg,po measured at 4 hrs by LC-MS/MS analysis; type: ADME, organism-based; settings: C57BL/6, mouse, read-out: Drug uptake
[21] = Drug uptake in RjOrl:Swiss (CD-1) mouse brain at 10 mg/kg, iv administered measured after 2 hrs by LC-MS/MS analysis; type: ADME, organism-based; settings: read-out: Ct
[22] = Ratio of drug concentration in RjOrl:Swiss (CD-1) mouse brain to plasma at 10mg/kg, iv administered measured after 2 hrs by LC-MS/MS analysis; type: ADME, organism-based; settings: brain and plasma, read-out: BPR
[23] = tested on: Blood; test: Antiinflammatory activity against LPS-stimulated C57BL/6 mouse whole blood assessed as reduction in TNF-alpha at 10 nM incubated for 24 hrs by ELISA based method; type: functional; settings: C57BL/6, Blood
[24] = tested on: Blood; test: Antiinflammatory activity against LPS-stimulated C57BL/6 mouse whole blood assessed as reduction in IL-6 incubated for 24 hrs by ELISA based method; type: functional; set-up: scale not given: the % may be the effect or the level left; settings: dose 1-100 nM, at 1 to 100 nM
[25] = tested on: Blood; test: Reduction in LPS-stimulated TNF-alpha release in human whole blood incubated for 15 mins by ELISA based method; settings: 0.25 h
[26] = Drug concentration in mouse C57BL/6 brain at 0.4 mg/kg,iv measured at 2 hrs by LC-MS/MS analysis; type: ADME, organism-based; settings: C57BL/6, mouse, read-out: Drug uptake
[27] = Drug uptake in mouse C57BL/6 brain at 0.4 mg/kg,po measured upto 240 mins by LC-MS/MS analysis; type: ADME, organism-based; settings: in vivo, 4 h
[28] = Drug uptake in mouse C57BL/6 brain at 0.4 mg/kg,iv measured upto 240 mins by LC-MS/MS analysis; type: ADME, organism-based; settings: in vivo, 4 h
[29] = Drug concentration in rat plasma at 6 mg/kg, iv measured after 24 hrs by LC/MS/MS analysis
[30] = Drug concentration in rat brain at 6 mg/kg, iv measured after 24 hrs by LC/MS/MS analysis; settings: in vivo
[31] = Drug concentration in rat brain at 1.5 mg/kg, po measured after 1 hrs by LC/MS/MS analysis; type: ADME, organism-based; settings: in vivo
[32] = Drug concentration in rat plasma at 1.5 mg/kg, po measured after 1 hrs by LC/MS/MS analysis; type: ADME, organism-based
[33] = Drug concentration in rat brain at 4.5 mg/kg, po measured after 1 hrs by LC/MS/MS analysis; type: ADME, organism-based; settings: in vivo
[34] = Ratio of drug concentration in rat brain to plasma; settings: brain and plasma
[35] = Drug concentration in rat plasma at 4.5 mg/kg, po measured after 1 hrs by LC/MS/MS analysis; type: ADME, organism-based

Mitogen-activated protein kinase 14, sequence (Q16539 whole entry): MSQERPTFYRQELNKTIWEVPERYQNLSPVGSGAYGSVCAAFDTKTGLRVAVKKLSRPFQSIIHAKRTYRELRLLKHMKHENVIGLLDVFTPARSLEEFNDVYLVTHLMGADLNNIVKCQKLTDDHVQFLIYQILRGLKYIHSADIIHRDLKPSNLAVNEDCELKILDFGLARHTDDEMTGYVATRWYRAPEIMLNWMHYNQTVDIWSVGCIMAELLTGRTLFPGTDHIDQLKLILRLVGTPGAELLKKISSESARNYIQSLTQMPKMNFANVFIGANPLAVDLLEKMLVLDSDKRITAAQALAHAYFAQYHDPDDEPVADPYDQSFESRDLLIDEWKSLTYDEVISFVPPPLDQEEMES

Row | Structure (SMILES) | IC50 [1] [nM] | inhibition at 10 µM [6] [%] | Activity [9] [%] | inhibition at 10 µM [11] [%] | inhibition at 10 µM [12] [%] | viability at 24 h, 0.1 µM [13] [%] | Activity [14] | inhibition at 10 µM [15] [%] | inhibition at 10 µM [16] [%] | inhibition at 10 µM [17] [%] | remaining at 2 h [18] [%] | inhibition at 0.01 µM [23] [%] | Activity [24] [%] | further results
1 | Nc1ccccc1Nc1ccc2c(c1)CCc1ccc(C(=O)NCCC(=O)O)cc1C2=O | 0.98 | 13.1 | 5 | 4.1 | 22.5 | 66 | Non-Toxic | 11.4 | 28.1 | 21.8 | 99 | – | – | concentration at 4 h [2]: 120 nM; concentration at 4 h [3]: 540 nM; Activity [4]: 138%; Activity [5]: 118%; concentration at 2 h [7]: 590 nM; Kp at 2 h [8]: 4.7; Activity [10]: 29%; concentration at 4 h [19]: 330 nM; concentration at 4 h [20]: 380 nM
2 | O=C(O)CCNC(=O)c1ccc2c(c1)C(=O)c1ccc(Nc3ccc(F)cc3F)cc1CC2 | 5.5 | 98.5 | 5 | 54.8 | 11.8 | 66 | Non-Toxic | 3 | 33.6 | 100 | 97 | – | – | concentration at 2 h [21]: 103 ng/g; Kp at 2 h [22]: 1.25
3 | COC(=O)CCNC(=O)c1ccc2c(c1)C(=O)c1ccc(Nc3ccc(F)cc3F)cc1CC2 | 1.2 | 99.4 | – | 68 | 59.9 | 66 | Non-Toxic | 73.7 | 27.3 | 100 | 0 | 50 | 85 | –
4 | O=C(NCCN1CC2(COC2)C1)c1ccc2c(c1)C(=O)c1ccc(Nc3ccc(F)cc3F)cc1CC2 | 5.9 | 88.7 | – | 83.6 | 76.6 | – | – | 18.3 | 0 | 93.6 | 47 | – | – | concentration at 2 h [21]: 68 ng/g; Kp at 2 h [22]: 0.16
5 | O=C(O)CCCNC(=O)c1ccc2c(c1)C(=O)c1ccc(Nc3ccc(F)cc3F)cc1CC2 | 12 | 66 | – | 38.1 | 14.4 | 66 | Non-Toxic | 2 | 16.2 | 63.2 | 99 | 50 | 71 | concentration at 2 h [21]: 98.2 ng/g; Kp at 2 h [22]: 4.38
6 | COC(=O)CCCNC(=O)c1ccc2c(c1)C(=O)c1ccc(Nc3ccc(F)cc3F)cc1CC2 | 3.4 | 68.4 | – | 34.9 | 49.7 | 66 | Non-Toxic | 3 | 11.6 | 60.4 | – | 50 | 64 | IC50 [25]: 64 nM
7 | COC(=O)CCNC(=O)c1ccc2c(c1)C(=O)c1ccc(Nc3ccccc3N)cc1CC2 | 29 | – | – | – | – | 66 | Non-Toxic | – | – | – | – | 50 | 81 | –
8 | CNC(=O)c1ccc2c(c1)C(=O)c1ccc(Nc3ccccc3N)cc1CC2 | 5.7 | – | – | – | – | 66 | Non-Toxic | – | – | – | 3 | – | – | concentration at 2 h [26]: 20 nM; concentration at 2 h [7]: 20 nM
9 | O=C(NCCOCCO)c1ccc2c(c1)C(=O)c1ccc(Nc3ccc(F)cc3F)cc1CC2 | 10 | – | 5 | – | – | 66 | Non-Toxic | – | – | – | – | – | – | Drug uptake [27]: Not Active; Drug uptake [28]: Not Active
10 | COC(=O)[C@@H](N)CCNC(=O)c1ccc2c(c1)C(=O)c1ccc(Nc3ccc(F)cc3F)cc1CC2 | 2.3 | – | 5 | – | – | 66 | Non-Toxic | – | – | – | 6 | – | – | Drug uptake [27]: Not Active; Drug uptake [28]: Not Active
11 | O=C(Nc1ccccc1)c1ccc2c(c1)C(=O)c1ccc(Nc3ccc(F)cc3F)cc1CC2 | 2.4 | – | 5 | – | – | 66 | Non-Toxic | – | – | – | – | – | – | Drug uptake [27]: Not Active; Activity [10]: 51%; Drug uptake [28]: Not Active
12 | CN1CCN(c2cc(-c3ccncc3)c(-c3ccc4ccccc4c3)nn2)CC1 [MW-150] | – | – | – | – | – | – | – | – | – | – | – | – | – | concentration at 24 h [29]: 390 ng/mL; Ct [30]: 1030 nmol/kg
13 | O=c1ncn2nc(Sc3ccc(F)cc3F)ccc2c1-c1c(Cl)cccc1Cl [NEFLAMAPIMOD] | – | – | – | – | – | – | – | – | – | – | – | – | – | Ct [31]: 129 nmol/kg; concentration at 1 h [32]: 33 ng/mL; Ct [33]: 359 nmol/kg; Kp [34]: 1.7; concentration at 1 h [35]: 92 ng/mL
